Molecules are shown by their SMILES. Active and inactive are the calls of the source. The calls are words filed in the database; no cut-off is given here.

This assay has as its system Felis catus. Briefly: Increase in cerebral blood flow in anesthetized cat suprasylvian gyrus at 0.3 mg/kg, iv. Details: dose 0.3 mg/kg. It counts as functional, organism-based.

Take `C[n+]1c2n(c(=O)c3ccccc31)CCc1c-2[nH]c2ccccc12`: the outcome was Active.

The record behind these values is ChEMBL document CHEMBL1149049, “Increased feline cerebral blood flow induced by dehydroevodiamine hydrochloride from Evodia rutaecarpa” (J Nat Prod, 1994).
